Test results from patent US20210371379A1, “NOVEL SALT OF 4-({(4S)-1-(4-CARBAMIMIDOYLBENZOYL)-4-[4(METHYLSULFONYL)PIPERAZIN-1-YL]-L-PROLYL}AMINO) BENZOIC ACID AND NOVEL CRYSTAL FORM THEREOF” (ONO PHARMACEUTICAL CO., LTD., priority 2018, published 2021).

Columns and labels:
Format in all cases: physicochemical
[1] = Hygroscopicity evaluation (isotherm adsorption curve); details: 25° C., relative humidity in the range of 5% to 70%
Procedure: The isotherm adsorption curve was measured under the following conditions. Ditosylate, monoacetate and pentahydrate of Compound A were measured under Condition 1, and besylate of […] was measured under Condition 2.
Measurement temperature: 25° C.
Measurement range: Relative humidity of 5 to 95%
Measurement interval: Relative humidity of 5%
Measurement range: Relative humidity of 0 to 95%

[2] = Chemical stability test: residual rate measurement by HPLC after storage; details: for Residual rate (%): versus sample stored at −20° C.
Procedure: The chemical stability of crystals of ditosylate, dibesylate, pentahydrate and monoacetate of Compound A was measured by the following method and conditions.
About 1.5 to 3 mg of a test compound was weighed in a lab tube and stored under the following conditions.
After storage, the residual rate (%) of the stored sample under each condition was calculated by HPLC based on the area percentage of main medicine of the sample stored at −20° C. In addition, appearance was visually observed and compared with the sample stored at −20° C. […]
Comparison object of each sample was stored at −20° C.
An evaluation sample (0.8 mg) was dissolved in a mixed solution of acetonitrile/100 mM NaClO4 […] about 0.8 mL (sample concentration: 1.0 mg/mL) acetonitrile/100 mmol/L NaClO4 aq. (pH3.0) (3/1) to prepare a solution of 1.0 mg/mL (concentration as salt).
Detector: Ultraviolet absorptiometer (measurement wavelength: 265 nm)
Column: SPELCO Ascentis Express (150 mm×4.6 mm, S-2.7 μm)
Column temperature: 25° C.
Mobile phase: Solution A: 100 mmol/L NaClO4 aq. (pH 3.0), Solution B: acetonitrile
Area measurement range: 34.6 minutes

[3] = Physical stability: powder X-ray measurement before and after storage; details: 25° C.-60% RH, 2 months
Procedure: The physical stability of monoacetate and ditosylate of Compound A was measured by the following method and conditions.
Test compounds were respectively weighed in a lab tube at about 20 mg for monoacetate and about 40 mg for ditosylate, and stored under the following conditions.
Device: D8 DISCOVER with GADDS manufactured by BRUKER axs

[4] = crystals stored at 40° C. for 2 months
[5] = crystals stored at 40° C.-75% RH (opened) for 2 months
[6] = crystals stored at 60° C. for 1 month

Row | Structure (SMILES) | weight gain [1] [wt %] | Residual rate (%) [2, 4] [%] | Residual rate (%) [2, 5] [%] | Residual rate (%) [2, 6] [%] | change of powder X-ray diffraction spectrum before and after storage [3] | weight gain ([1]; listed as pentahydrate of Compound A) [wt %] | residual rate ([2]; under the conditions of 40° C.-75%) | weight gain ([1]; listed as monoacetate of Compound A, monoacetate) [wt %] | Residual rate (%) ([2]; crystals stored at 40° C. for 2 months, monoacetate) | Residual rate (%) ([2]; crystals stored at 40° C.-75% RH (opened) for 2 months, monoacetate) | Residual rate (%) ([2]; crystals stored at 60° C. for 1 month, monoacetate)
1 | CS(=O)(=O)N1CCN([C@H]2C[C@@H](C(=O)Nc3ccc(C(=O)O)cc3)N(C(=O)c3ccc(C(=N)N)cc3)C2)CC1.Cc1ccc(S(=O)(=O)O)cc1 [Ditosylate, 4-({(4S)-1-(4-Carbamimidoylbenzoyl)-4-[4-(methylsulfonyl)piperazin-1-yl]-L-prolyl}amino) benzoic acid di(4-toluenesulfonate)] | 1.5 | 100 | 99.3 | 100 | no significant peak change was recognized | – | – | – | – | – | –
2 | CS(=O)(=O)N1CCN([C@H]2C[C@@H](C(=O)Nc3ccc(C(=O)O)cc3)N(C(=O)c3ccc(C(=N)N)cc3)C2)CC1 [Pentahydrate, 4-({(4S)-1-(4-Carbamimidoylbenzoyl)-4-[4-(methylsulfonyl)piperazin-1-yl]-L-prolyl}amino) benzoic acid pentahydrate] | – | 36.3 | 37 | 23.1 | – | 12.2 | reduced residual rate | – | – | – | –
3 | CS(=O)(=O)N1CCN([C@H]2C[C@@H](C(=O)Nc3ccc(C(=O)O)cc3)N(C(=O)c3ccc(C(=N)N)cc3)C2)CC1 [Monoacetate, 4-({(4S)-1-(4-Carbamimidoylbenzoyl)-4-[4-(methylsulfonyl)piperazin-1-yl]-L-prolyl}amino) benzoic acid monoacetate] | – | – | – | – | change in the spectra was recognized | – | – | 6.4 | 99 | 95 | 97.5
4 | CS(=O)(=O)N1CCN([C@H]2C[C@@H](C(=O)Nc3ccc(C(=O)O)cc3)N(C(=O)c3ccc(C(=N)N)cc3)C2)CC1.O=S(=O)(O)c1ccccc1 [Dibesylate, 4-({(4S)-1-(4-Carbamimidoylbenzoyl)-4-[4-(methylsulfonyl)piperazin-1-yl]-L-prolyl}amino) benzoic acid dibenzenesulfonate] | 1.9 | – | 99.5 | 100 | – | – | – | – | – | – | –
